IC50 data for 29 compounds are collected here from US10954232B2, “Pyrazole derivative as ALK5 inhibitor and uses thereof” (HANMI PHARMACEUTICAL CO., LTD., priority 2016, dated 2021).

This assay concerns the target T1, ALK5 kinase (Homo sapiens, UniProt P36897).
T1 construct: GST; purchased Thermo Fisher Scientific Solutions
T1 sequence (P36897 34-503): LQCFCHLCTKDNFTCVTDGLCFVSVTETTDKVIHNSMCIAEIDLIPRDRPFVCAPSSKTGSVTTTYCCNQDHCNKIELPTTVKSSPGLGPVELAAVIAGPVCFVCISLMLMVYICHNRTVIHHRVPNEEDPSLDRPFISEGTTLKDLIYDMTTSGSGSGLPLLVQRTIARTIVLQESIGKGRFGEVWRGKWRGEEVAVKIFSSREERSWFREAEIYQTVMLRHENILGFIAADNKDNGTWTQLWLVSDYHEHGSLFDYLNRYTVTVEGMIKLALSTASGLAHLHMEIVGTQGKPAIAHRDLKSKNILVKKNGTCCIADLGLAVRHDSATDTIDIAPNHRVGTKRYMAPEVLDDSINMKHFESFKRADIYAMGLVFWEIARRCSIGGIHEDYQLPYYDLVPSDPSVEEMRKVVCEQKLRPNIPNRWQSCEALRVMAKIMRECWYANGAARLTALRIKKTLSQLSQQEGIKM
The experiment in a line: Activity inhibition test on ALK5 enzyme (LanthaScreen Eu binding kinase assay). Conditions: kinase tracer 178, 60 minutes at room temperature. On the procedure: For each of the compounds obtained in Examples 1 to 227, inhibitory activity against ALK5 kinase was measured.
For this, a LanthaScreen Eu binding kinase assay method was used, and ALK5 kinase, a kinase buffer, a kinase tracer 178, and a LanthaScreen Eu-GST binding antibody were all purchased from Thermo Fisher Scientific Solutions. Each of the compounds was made into a 10 mM DMSO solution, and diluted by 1/10 to a concentration of 1 μM to 0.0001 μM with an aqueous solution containing 4% DMSO. The test was performed in 384 well plates (well polystyrene low volume round-bottomed plates). First, 5 μL of the diluted compound solution was added, then 5 μL of the kinase/antibody mixture solution was introduced thereto, and 5 μL of the tracer was introduced thereto. Herein, these were added to each well so that the final kinase concentration became 5 nM, the final Eu-GST binding antibody concentration 2 nM, and the kinase tracer 178 concentration 10 nM, and the result was reacted in a stirrer for 60 minutes at room temperature. Then a fluorescence value was measured using a fluorescence meter (molecular device) ([…], 665 nm emission filter). Herein, as for the degree of compound activity to inhibit the kinase reaction, a phosphorylate rate was calculated from 0% to 100% with respect to a control group according to the protocol included in the kit, and a 50% inhibitory concentration (IC50) value was calculated by obtaining the x-axis concentration in the region where 50% activity was inhibited.
A general note: Time-resolved FRET reads energy transfer from a long-lived donor to a nearby acceptor.
For orientation: IC50 means the midpoint of a concentration-inhibition curve. High values mean weaker potency, low ones greater potency. In turn, “5-([1,2,4]triazolo[1,5-α]pyridin-6-yl)-N-(1-cyclopropyl sulfonyl)-1H-pyrazol-4-yl)-1-(6-methylpyridin-2-yl)-1H-pyrazole-3-carboxyamide [Example 163]” displayed an IC50 of 4.6 nM.

Take “5-([1,2,4]triazolo[1,5-α]pyridin-6-yl)-N-(4-((1,1-dioxidotetrahydrothiophen-3-yl)amino)phenyl)-1-(6-methylpyridin-2-yl)-1H-pyrazole-3-carboxyamide [Example 109]”: the IC50 came out at 9.7 nM.

Take `COc1ccc(NC(=O)c2cc(-c3ccc4ncsc4c3)n(-c3cccc(C)n3)n2)cc1` [Example 1, 5-(benzo[d]thiazol-6-yl)-N-(4-methoxyphenyl)-1-(6-methylpyridin-2-yl)-1H-pyrazole-3-carboxyamide]: the IC50 came to 5 nM.

The compound `CCOc1ccc(NC(=O)c2cc(-c3ccc4ncsc4c3)n(-c3cccc(C)n3)n2)cc1` [Example 2, 5-(benzo[d]thiazol-6-yl)-N-(4-ethoxyphenyl)-1-(6-methylpyridin-2-yl)-1H-pyrazole-3-carboxyamide] displayed a concentration for half-maximal inhibition (IC50) of 4.7 nM.

`Cc1cccc(-n2nc(C(=O)Nc3ccc(OCC4CC4)cc3)cc2-c2ccc3ncsc3c2)n1` [Example 3, 5-(benzo[d]thiazol-6-yl)-N-(4-(cyclopropylmethoxy)phenyl)-1-(6-methylpyridin-2-yl)-1H-pyrazole-3-carboxyamide]: the concentration for half-maximal inhibition (IC50) was determined as 12 nM.

The compound `COCCOc1ccc(NC(=O)c2cc(-c3ccc4ncsc4c3)n(-c3cccc(C)n3)n2)cc1` [Example 4, 5-(benzo[d]thiazol-6-yl)-N-(4-(2-methoxyethoxy)phenyl)-1-(6-methylpyridin-2-yl)-1H-pyrazole-3-carboxyamide] had a concentration for half-maximal inhibition (IC50) of 4.4 nM.

With `Cc1cccc(-n2nc(C(=O)Nc3ccc(OC(F)(F)F)cc3)cc2-c2ccc3ncsc3c2)n1` [Example 5, 5-(benzo[d]thiazol-6-yl)-1-(6-methylpyridin-2-yl)-N-(4-(trifluoromethoxy)phenyl)-1H-pyrazole-3-carboxyamide], the half-maximal inhibitory concentration (IC50) was 10 to 100 nM.

`Cc1cccc(-n2nc(C(=O)Nc3ccc(OCc4ccccc4)cc3)cc2-c2ccc3ncsc3c2)n1` [Example 6, 5-(benzo[d]thiazol-6-yl)-N-(4-(benzyloxy)phenyl)-1-(6-methylpyridin-2-yl)-1H-pyrazole-3-carboxyamide] gave an IC50 of 11 nM.

Regarding `Cc1cccc(-n2nc(C(=O)Nc3ccc4c(c3)OCO4)cc2-c2ccc3ncsc3c2)n1` [Example 7, N-(benzo[d][1,3]dioxol-5-yl)-5-(benzo[d]thiazol-6-yl)-1-(6-methylpyridin-2-yl)-1-H-pyrazole-3-carboxyamide], the IC50 was less than 10 nM.

Take `COc1cc(NC(=O)c2cc(-c3ccc4ncsc4c3)n(-c3cccc(C)n3)n2)ccc1F` [Example 8, 5-(benzo[d]thiazol-6-yl)-N-(4-fluoro-3-methoxyphenyl)-1-(6-methylpyridin-2-yl)-1H-pyrazole-3-carboxyamide]: the IC50 turned out to be 4.7 nM.

`COc1ccc(NC(=O)c2cc(-c3ccc4ncsc4c3)n(-c3cccc(C)n3)n2)c(F)c1` [Example 9, 5-(benzo[d]thiazol-6-yl)-N-(2-fluoro-4-methoxyphenyl)-1-(6-methylpyridin-2-yl)-1H-pyrazole-3-carboxyamide]: the 50% inhibitory concentration (IC50) amounted to 19 nM.

In the case of `COc1ccc(NC(=O)c2cc(-c3ccc4ncsc4c3)n(-c3cccc(C)n3)n2)cc1F` [Example 10, 5-(benzo[d]thiazol-6-yl)-N-(3-fluoro-4-methoxyphenyl)-1-(6-methylpyridin-2-yl)-1H-pyrazole-3-carboxyamide], the concentration for half-maximal inhibition (IC50) was determined as 10 nM.

Consider `Cc1cccc(-n2nc(C(=O)Nc3cccc(N)c3)cc2-c2ccc3ncsc3c2)n1` [Example 11, 5-(benzo[d]thiazol-6-yl)-N-(3-aminophenyl)-1-(6-methylpyridin-2-yl)-1H-pyrazole-3-carboxyamide], for which the IC50 came out at 2.2 nM.

In turn, `CNc1cccc(NC(=O)c2cc(-c3ccc4ncsc4c3)n(-c3cccc(C)n3)n2)c1` [Example 12, 5-(benzo[d]thiazol-6-yl)-N-(3-(methylamino)phenyl)-1-(6-methylpyridin-2-yl)-1H-pyrazole-3-carboxyamide] came in with an IC50 of 6.1 nM.

`Cc1cccc(-n2nc(C(=O)Nc3ccc(N(C)C)cc3)cc2-c2ccc3ncsc3c2)n1` [Example 13, 5-(benzo[d]thiazol-6-yl)-N-(4-(dimethylamino)phenyl)-1-(6-methylpyridin-2-yl)-1H-pyrazole-3-carboxyamide]: the IC50 was in the range of 10 to 100 nM.

On to `Cc1cccc(-n2nc(C(=O)Nc3ccc([N+](=O)[O-])cc3)cc2-c2ccc3ncsc3c2)n1` [Example 14, 5-(benzo[d]thiazol-6-yl)-1-(6-methylpyridin-2-yl)-N-(4-nitrophenyl)-1H-pyrazole-3-carboxyamide], for which the IC50 amounted to 17 nM.

`Cc1cccc(-n2nc(C(=O)Nc3ccc(N(C)CCN(C)C)cc3)cc2-c2ccc3ncsc3c2)n1` [Example 15, 5-(benzo[d]thiazol-6-yl)-N-(4-((2-(dimethylamino)ethyl)(methyl)amino)phenyl)-1-(6-methylpyridin-2-yl)-1H-pyrazole-3-carboxyamide] came in with an IC50 of 6.4 nM.

In turn, `Cc1cccc(-n2nc(C(=O)Nc3ccc(N4CC[C@H](N(C)C)C4)cc3)cc2-c2ccc3ncsc3c2)n1` [Example 16, 5-(benzo[d]thiazol-6-yl)-N-(4-(3-(dimethylamino)pyrrolidin-1-yl)phenyl)-1-(6-methylpyridin-2-yl)-1H-pyrazole-3-carboxyamide] came in with an IC50 of 2.3 nM.

With `Cc1cccc(-n2nc(C(=O)Nc3ccc(N4CC5CCCNC5C4)c(Cl)c3)cc2-c2ccc3ncsc3c2)n1` (centres unmarked) [Example 17, 5-(benzo[d]thiazol-6-yl)-N-(3-chloro-4-(octahydro-6H-pyrrolo[3,4-b]pyridin-6-yl)phenyl)-1-(6-methylpyridin-2-yl)-1H-pyrazole-3-carboxyamide], the IC50 is 14 nM.

As for `Cc1cccc(-n2nc(C(=O)Nc3ccccc3)cc2-c2ccc3ncsc3c2)n1` [Example 18, 5-(benzo[d]thiazol-6-yl)-1-(6-methylpyridin-2-yl)-N-phenyl-1H-pyrazole-3-carboxyamide], the IC50 is 10 to 100 nM.

On to `Cc1cccc(NC(=O)c2cc(-c3ccc4ncsc4c3)n(-c3cccc(C)n3)n2)c1` [Example 19, 5-(benzo[d]thiazol-6-yl)-N-(3-tolyl)-1-(6-methylpyridin-2-yl)-1H-pyrazole-3-carboxyamide], for which the half-inhibitory concentration (IC50) was in the range of 10 to 100 nM.

The compound `C=Cc1cccc(NC(=O)c2cc(-c3ccc4ncsc4c3)n(-c3cccc(C)n3)n2)c1` [Example 20, 5-(benzo[d]thiazol-6-yl)-1-(6-methylpyridin-2-yl)-N-(3-vinylphenyl)-1H-pyrazole-3-carboxyamide] showed a half-maximal inhibitory concentration (IC50) of 10 to 100 nM.

For the compound `Cc1cccc(-n2nc(C(=O)Nc3cccc(C(F)(F)F)c3)cc2-c2ccc3ncsc3c2)n1` [Example 21, 5-(benzo[d]thiazol-6-yl)-N-(3-(trifluoromethyl)phenyl)-1-(6-methylpyridin-2-yl)-1H-pyrazole-3-carboxyamide], the half-inhibitory concentration (IC50) is approximately 100 nM.

`Cc1cccc(-n2nc(C(=O)Nc3cccc(C#N)c3)cc2-c2ccc3ncsc3c2)n1` [Example 22] yielded a concentration for half-maximal inhibition (IC50) of 10 to 100 nM.

For `CC(=O)c1cccc(NC(=O)c2cc(-c3ccc4ncsc4c3)n(-c3cccc(C)n3)n2)c1` [Example 23, 5-(benzo[d]thiazol-6-yl)-N-(3-acetylphenyl)-1-(6-methylpyridin-2-yl)-1H-pyrazole-3-carboxyamide], the 50% inhibitory concentration (IC50) is approximately 10 nM.

For the compound `CCOC(=O)c1cccc(NC(=O)c2cc(-c3ccc4ncsc4c3)n(-c3cccc(C)n3)n2)c1` [Example 24, ethyl 3-(5-(benzo[d]thiazol-6-yl)-1-(6-methylpyridin-2-yl)-1H-pyrazole-3-carboxyamido)benzoate], the IC50 is approximately 100 nM.

In the case of `CNC(=O)c1ccc(NC(=O)c2cc(-c3ccc4ncsc4c3)n(-c3cccc(C)n3)n2)cc1` [Example 25, 5-(benzo[d]thiazol-6-yl)-N-(4-(methylcarbamoyl)phenyl)-1-(6-methylpyridin-2-yl)-1H-pyrazole-3-carboxyamide], the concentration for half-maximal inhibition (IC50) is less than 10 nM.

In turn, `CC(=O)Nc1ccc(NC(=O)c2cc(-c3ccc4ncsc4c3)n(-c3cccc(C)n3)n2)cc1` [Example 26, 5-(benzo[d]thiazol-6-yl)-N-(4-acetamidophenyl)-1-(6-methylpyridin-2-yl)-1H-pyrazole-3-carboxyamide] gave a half-maximal inhibitory concentration (IC50) of 10 to 100 nM.

The compound `Cc1cccc(-n2nc(C(=O)Nc3ccccc3F)cc2-c2ccc3ncsc3c2)n1` [Example 27, 5-(benzo[d]thiazol-6-yl)-N-(2-fluorophenyl)-1-(6-methylpyridin-2-yl)-1H-pyrazole-3-carboxyamide] showed a concentration for half-maximal inhibition (IC50) of 6.2 nM.
